Test results published in US20120232158A1, “METHODS OF TREATING HYPERACIDIC DISORDERS” (Yale Univeristy, priority 2008, published 2012).
Entries after “also recorded” stand apart in the source; their conditions may differ.

Key:
Assay type in all cases: cell-based
[1] = test system: gastric glands (gastric parietal cells); assay: Secretagogue (histamine) induced acid secretion in superfused gastric glands from Sprague-Dawley rats; conditions: rat glands treated with secretagogue (histamine) first (bars B, C, D); FIG. 6
Procedure: The HEPES-Ringer solution contained (in mmol/L): NaCl 125; KCl 5; MgCl2 0.5; HEPES 22, CaCl2 0.1 or 1.6; glucose 10, pH=7.4. The solution was bubbled with 100% O2. 2′,7′-bis′(carboxyethyl)-5-(6)-carboxyfluorescein (BCECF) from Invitrogen (Seattle, Wash., USA) and stock solutions were prepared in dimethyl sulphoxide (DMSO). […]

[2] = test system: gastric glands (gastric parietal cells); assay: Acid secretion by superfused gastric glands of CaSR knockout (Casr−/−; Gcm2−/−) mice; conditions: glands from Casr−/−, FIG. 2; for acid secretion stimulated by natural secretagogue: 100 μM, Gcm2−/− mice
Procedure: (§1) Male (Casr^+/+; Gcm2^−/−) or CaSR knockout (Casr^−/−; Gcm2^−/−) mice weighing 22-27 grams (upper panel) or male Sprague-Dawley rats weighing 220-275 grams (lower panel) were fasted with ad lib access to water for 18 hours prior to experimentation. The animals were exposed to an overdose of isofluorane and the stomach was removed by a total gastrectomy. The corpus was removed from the stomach and sectioned at 4° C. All mice were generated at Yale University from a breeding colony. Male Sprague-Dawley rats were purchased from Charles River Laboratories Inc. (Wilmington, Mass.). All animals were cared for according to the standard protocols of the Yale University Animal Care and Use Committee.
The HEPES-Ringer solution contained (in mmol/L): NaCl 125; KCl 5; MgCl2 0.5; HEPES 22, CaCl2 0.1 or 1.6; glucose 10, pH=7.4. The solution was bubbled with 100% O2. 2′,7′-bis′(carboxyethyl)-5-(6)-carboxyfluorescein (BCECF) from Invitrogen (Seattle, Wash., USA) and stock solutions were prepared in dimethyl sulphoxide (DMSO).
(§2) Individual gastric glands were hand dissected and transferred to the stage of an inverted microscope where they were loaded with the intracellular pH marker BCECF. Once loaded with the dye the glands were superfused with normal HEPES Ringer solution at 37° C. and at a pH of 7.4 for 5 minutes. The glands were then challenged with 20 mM NH4Cl and 0 mM Na to induce an acid load within the cell. The rate of recover was then calculated in the presence or absence of the calcimimetic Compound A at either 10 or 100 nM concentration.
(§3) The rate of recovery in the absence of Na was recorded for each parietal cell and then summated and the mean ±SEM of the data for each gland and then for each animal determined. […] The recovery rates are determined as the rate of recovery following an acid load. This rate determines how fast the cell can extrude protons and provides a measure of the activity of the gastric H,K-ATPase proton pump.
Gastric acid secretion is measured in Casr^−/−; Gcm2^−/− mice that lack a functional CaSR.

[3] = test system: gastric glands (gastric parietal cells); assay: Acid secretion by superfused gastric glands isolated from control Casr+/+; Gcm2−/− mice (rate of recovery after acid load, BCECF); conditions: FIG. 1
Procedure: as §1
(§4) The HEPES-Ringer solution contained (in mmol/L): NaCl 125; KCl 5; MgCl2 0.5; HEPES 22, CaCl2 0.1 or 1.6; glucose 10, pH=7.4. […]
(§5) Individual gastric glands were hand dissected and transferred to the stage of an inverted microscope where they were loaded with the intracellular pH marker BCECF. […] The rate of recover was then calculated in the presence or absence of the calcimimetic Compound A at either 10 or 100 nM concentration.
(§6) The rate of recovery in the absence of Na was recorded for each parietal cell and then summated and the mean ±SEM of the data for each gland and then for each animal determined. […] The recovery rates are determined as the rate of recovery following an acid load. […]

[4] = test system: gastric glands (gastric parietal cells); assay: Acid secretion by superfused gastric glands isolated from Sprague-Dawley rats (rate of recovery after acid load, BCECF); conditions: FIG. 1
Procedure: as §1, §4, §5, §6

[5] = test system: gastric glands (gastric parietal cells); assay: Secretagogue (acetyl choline) induced acid secretion in mouse gastric glands with functional CaSR; conditions: 100 μM acetyl choline, calcilytic at 10 or 100 nM, mice with functional CaSR (Casr+/+; Gcm2−/−), FIG. 3
[6] = test system: gastric glands (gastric parietal cells); assay: Acid secretion by superfused gastric glands from mice with constitutively active gastric H,K-ATPase proton pump; conditions: mice with functional CaSR and constitutively active H,K-ATPase; FIG. 5
Procedure: as §2, §3
These mice have a mutation in the gastric H,K-ATPase proton pump that renders the pump constitutively active.

COc1cccc(C(C)NCCCc2ccccc2Cl)c1 (stereo not drawn) [Compound A, 3-(2-chlorophenyl)-N-(1-(3-(methyloxy)phenyl)ethyl)-1-propanamine]
effect on secretagogue induced acid secretion [1]: decreased acid secretion | effect on basal acid secretion ([2]; Gcm2−/− mice lacking functional CaSR): unable to increase acid secretion | concentration dependence of the effect on acid secretion [3]: concentration dependent | concentration dependence of the effect on acid secretion [4]: concentration dependent

NCCc1c[nH]cn1 [histamine]
acid secretion stimulated by natural secretagogue [2]: able to increase acid secretion; also recorded: increases acid secretion

C[N+](C)(C)CCOC(N)=O [carbachol]
acid secretion stimulated by natural secretagogue [2]: able to increase acid secretion; also recorded: increases acid secretion

CC(C)(Cc1ccc2ccccc2c1)NCC(O)COc1cccc(Cl)c1C#N (stereo not drawn) [Compound B, 2-chloro-6-(2-hydroxy-3-(2-methyl-1-(naphthalen-2-yl)propan-2-ylamino)propoxy)benzonitrile]
inhibition of secretagogue induced acid secretion [5]: inhibition of acid secretion in a concentration dependent fashion | inhibition of secretagogue induced acid secretion ([5]; listed as compound B): reduces acid secretion in a dose-dependent manner | inhibition of acid secretion [6]: suppresses gastric acid secretion in a concentration-dependent fashion; also recorded: reduce acid secretion
